PubChem BioAssay (NCI)
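All cell lines were grown in 96-well plates and treated with compound for 48 hours. TGI denotes the concentration required for complete inhibition of growth.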

Tests used:
Assay in all cases: inhibition of tumour cell growth, NCI panel, 48 h
SN12C renal = tested on: SN12C renal
SF-539 CNS = tested on: SF-539 CNS
MDA-N = tested on: MDA-N
PC-3 prostate = tested on: PC-3 prostate
EKVX NSCLC = tested on: EKVX NSCLC
SK-MEL-2 melanoma = tested on: SK-MEL-2 melanoma
NCI-H23 lung = tested on: NCI-H23 lung
MOLT-4 leukemia = tested on: MOLT-4 leukemia
RXF 393 renal = tested on: RXF 393 renal
HT29 colon = tested on: HT29 colon
OVCAR-4 ovarian = tested on: OVCAR-4 ovarian
NCI/ADR-RES ovarian = tested on: NCI/ADR-RES ovarian
BT-549 breast = tested on: BT-549 breast
SK-MEL-28 melanoma = tested on: SK-MEL-28 melanoma
UO-31 renal = tested on: UO-31 renal
M14 melanoma = tested on: M14 melanoma
HCC-2998 colon = tested on: HCC-2998 colon
UACC-62 melanoma = tested on: UACC-62 melanoma
MALME-3M melanoma = tested on: MALME-3M melanoma
OVCAR-5 ovarian = tested on: OVCAR-5 ovarian
ACHN renal = tested on: ACHN renal
NCI-H460 lung = tested on: NCI-H460 lung
KM12 colon = tested on: KM12 colon
RPMI-8226 leukemia = tested on: RPMI-8226 leukemia
SF-295 CNS = tested on: SF-295 CNS
K-562 leukemia = tested on: K-562 leukemia
HCT-15 colon = tested on: HCT-15 colon
MDA-MB-435 = tested on: MDA-MB-435
MCF7 breast = tested on: MCF7 breast
MDA-MB-231 breast = tested on: MDA-MB-231 breast
TK-10 renal = tested on: TK-10 renal
DU-145 prostate = tested on: DU-145 prostate
SR leukemia = tested on: SR leukemia
HL-60(TB) leukemia = tested on: HL-60(TB) leukemia
T-47D breast = tested on: T-47D breast
COLO 205 colon = tested on: COLO 205 colon
U251 CNS = tested on: U251 CNS
LOX IMVI melanoma = tested on: LOX IMVI melanoma
A498 renal = tested on: A498 renal
CCRF-CEM leukemia = tested on: CCRF-CEM leukemia
HOP-62 NSCLC = tested on: HOP-62 NSCLC
NCI-H226 lung = tested on: NCI-H226 lung
SK-OV-3 ovarian = tested on: SK-OV-3 ovarian
IGROV1 ovarian = tested on: IGROV1 ovarian
HOP-92 NSCLC = tested on: HOP-92 NSCLC
SNB-19 CNS = tested on: SNB-19 CNS
OVCAR-3 ovarian = tested on: OVCAR-3 ovarian
NCI-H522 lung = tested on: NCI-H522 lung
A549 NSCLC = tested on: A549 NSCLC
OVCAR-8 ovarian = tested on: OVCAR-8 ovarian
SF-268 CNS = tested on: SF-268 CNS
SW-620 colon = tested on: SW-620 colon
786-0 renal = tested on: 786-0 renal
HS 578T breast = tested on: HS 578T breast
SNB-75 CNS = tested on: SNB-75 CNS
SK-MEL-5 melanoma = tested on: SK-MEL-5 melanoma
UACC-257 melanoma = tested on: UACC-257 melanoma
CAKI-1 renal = tested on: CAKI-1 renal
HCT-116 colon = tested on: HCT-116 colon

How did the TGI (SN12C renal) turn out when Cc1cc2c(cc1C)N1C(Cl)=C3CCCCC3=C(C#N)C1N2 (stereo unspecified) was run?
Its TGI is 14.7 µM.

What about the TGI (SF-539 CNS) of the same compound?
The TGI was 41.6 µM.

And the TGI (MDA-N)?
Its TGI is 15.1 µM.

What about the TGI (PC-3 prostate) of the same compound?
Its TGI is 27.3 µM.

And the TGI (EKVX NSCLC)?
Its TGI is 41.2 µM.

What about the TGI (SK-MEL-2 melanoma) of the same compound?
The TGI was 29.2 µM.

And the TGI (NCI-H23 lung)?
Its TGI is 14.2 µM.

And the TGI (MOLT-4 leukemia)?
Its TGI is > 42.9 µM.

And the TGI (RXF 393 renal)?
The TGI was 29 µM.

What about the TGI (HT29 colon) of the same compound?
Its TGI is 6.94 µM.

What about the TGI (OVCAR-4 ovarian) of the same compound?
The TGI was 31.7 µM.

And the TGI (NCI/ADR-RES ovarian)?
The TGI was 14.5 µM.

What about the TGI (BT-549 breast) of the same compound?
Its TGI is 8.46 µM.

What about the TGI (SK-MEL-28 melanoma) of the same compound?
Its TGI is 10.6 µM.

What about the TGI (UO-31 renal) of the same compound?
Its TGI is 17.7 µM.

And the TGI (M14 melanoma)?
Its TGI is 21.2 µM.

What about the TGI (HCC-2998 colon) of the same compound?
The TGI was 22.4 µM.

What about the TGI (UACC-62 melanoma) of the same compound?
Its TGI is 7.63 µM.

What about the TGI (MALME-3M melanoma) of the same compound?
Its TGI is 34.6 µM.

What about the TGI (OVCAR-5 ovarian) of the same compound?
Its TGI is 36 µM.

And the TGI (ACHN renal)?
Its TGI is 10.5 µM.

What about the TGI (NCI-H460 lung) of the same compound?
The TGI was 51.8 µM.

And the TGI (KM12 colon)?
Its TGI is 24 µM.

What about the TGI (RPMI-8226 leukemia) of the same compound?
Its TGI is > 100 µM.

And the TGI (SF-295 CNS)?
Its TGI is 42.4 µM.

What about the TGI (K-562 leukemia) of the same compound?
Its TGI is > 100 µM.

What about the TGI (HCT-15 colon) of the same compound?
Its TGI is 7.76 µM.

What about the TGI (MDA-MB-435) of the same compound?
Its TGI is > 33.1 µM.

And the TGI (MCF7 breast)?
The TGI was 21.6 µM.

And the TGI (MDA-MB-231 breast)?
Its TGI is 30.1 µM.

And the TGI (TK-10 renal)?
Its TGI is 18.6 µM.

And the TGI (DU-145 prostate)?
Its TGI is 36.4 µM.

And the TGI (SR leukemia)?
Its TGI is > 100 µM.

And the TGI (HL-60(TB) leukemia)?
Its TGI is > 100 µM.

And the TGI (T-47D breast)?
The TGI was 28.3 µM.

What about the TGI (COLO 205 colon) of the same compound?
The TGI was 33.9 µM.

And the TGI (U251 CNS)?
The TGI was 24.6 µM.

What about the TGI (LOX IMVI melanoma) of the same compound?
The TGI was 4.37 µM.

And the TGI (A498 renal)?
The TGI was 33.8 µM.

What about the TGI (CCRF-CEM leukemia) of the same compound?
Its TGI is > 23.2 µM.

And the TGI (HOP-62 NSCLC)?
The TGI was 30.1 µM.

What about the TGI (NCI-H226 lung) of the same compound?
Its TGI is 30.5 µM.

And the TGI (SK-OV-3 ovarian)?
Its TGI is 39.6 µM.

And the TGI (IGROV1 ovarian)?
Its TGI is 28.3 µM.

What about the TGI (HOP-92 NSCLC) of the same compound?
Its TGI is > 30.4 µM.

What about the TGI (SNB-19 CNS) of the same compound?
The TGI was 45.3 µM.

And the TGI (OVCAR-3 ovarian)?
Its TGI is 30.5 µM.

And the TGI (NCI-H522 lung)?
Its TGI is 3.91 µM.

What about the TGI (A549 NSCLC) of the same compound?
Its TGI is 45.8 µM.

What about the TGI (OVCAR-8 ovarian) of the same compound?
The TGI was 32.9 µM.

What about the TGI (SF-268 CNS) of the same compound?
The TGI was 60.4 µM.

And the TGI (SW-620 colon)?
The TGI was 4.39 µM.

And the TGI (786-0 renal)?
The TGI was 3.61 µM.

What about the TGI (HS 578T breast) of the same compound?
Its TGI is > 100 µM.

What about the TGI (SNB-75 CNS) of the same compound?
Its TGI is 56.9 µM.

What about the TGI (SK-MEL-5 melanoma) of the same compound?
The TGI was > 32.8 µM.

And the TGI (UACC-257 melanoma)?
Its TGI is 22.3 µM.

And the TGI (CAKI-1 renal)?
The TGI was 12.3 µM.

For COC(=O)[C@@]12OC[C@]34[C@H]([C@@H](O)[C@@H]1O)[C@@]1(C)CC(=O)C(OC(C)=O)=C(C)[C@@H]1C[C@H]3OC(=O)[C@H](OC(=O)C=C(C)C)[C@@H]24, which TGI (SN12C renal) is on record?
The TGI was 4.52 µM.

And the TGI (SF-539 CNS)?
The TGI was 1.82 µM.

And the TGI (MDA-N)?
Its TGI is 3.2 µM.

What about the TGI (PC-3 prostate) of the same compound?
Its TGI is 4.01 µM.

What about the TGI (EKVX NSCLC) of the same compound?
Its TGI is 5.38 µM.

What about the TGI (SK-MEL-2 melanoma) of the same compound?
Its TGI is 2.79 µM.

And the TGI (NCI-H23 lung)?
The TGI was 2.2 µM.

What about the TGI (MOLT-4 leukemia) of the same compound?
Its TGI is 4.23 µM.

What about the TGI (RXF 393 renal) of the same compound?
Its TGI is 3.41 µM.

And the TGI (HT29 colon)?
Its TGI is 58.3 µM.

And the TGI (OVCAR-4 ovarian)?
The TGI was 4.05 µM.

And the TGI (NCI/ADR-RES ovarian)?
The TGI was 57.4 µM.

And the TGI (BT-549 breast)?
Its TGI is 5.27 µM.

What about the TGI (SK-MEL-28 melanoma) of the same compound?
Its TGI is 2.67 µM.

What about the TGI (UO-31 renal) of the same compound?
The TGI was 14.5 µM.

What about the TGI (M14 melanoma) of the same compound?
The TGI was 2.63 µM.

And the TGI (HCC-2998 colon)?
The TGI was 0.716 µM.

And the TGI (UACC-62 melanoma)?
The TGI was 3.16 µM.

What about the TGI (MALME-3M melanoma) of the same compound?
The TGI was 1.2 µM.

What about the TGI (OVCAR-5 ovarian) of the same compound?
Its TGI is 6.79 µM.

What about the TGI (ACHN renal) of the same compound?
The TGI was 10.8 µM.

And the TGI (NCI-H460 lung)?
The TGI was 1.38 µM.

What about the TGI (KM12 colon) of the same compound?
The TGI was 4.18 µM.

What about the TGI (RPMI-8226 leukemia) of the same compound?
Its TGI is 3.21 µM.

What about the TGI (SF-295 CNS) of the same compound?
Its TGI is 3 µM.

And the TGI (K-562 leukemia)?
Its TGI is 9.7 µM.

What about the TGI (HCT-15 colon) of the same compound?
The TGI was 7.46 µM.

And the TGI (MDA-MB-435)?
The TGI was 3.45 µM.

And the TGI (MCF7 breast)?
The TGI was 2.99 µM.

What about the TGI (MDA-MB-231 breast) of the same compound?
The TGI was 5.8 µM.

And the TGI (TK-10 renal)?
Its TGI is 4.75 µM.

What about the TGI (DU-145 prostate) of the same compound?
The TGI was 6.37 µM.

What about the TGI (SR leukemia) of the same compound?
The TGI was 2.07 µM.

What about the TGI (HL-60(TB) leukemia) of the same compound?
The TGI was 1.65 µM.

And the TGI (T-47D breast)?
The TGI was 5.93 µM.

What about the TGI (COLO 205 colon) of the same compound?
The TGI was 2.79 µM.

And the TGI (U251 CNS)?
Its TGI is 3.26 µM.

And the TGI (LOX IMVI melanoma)?
Its TGI is 0.981 µM.

What about the TGI (A498 renal) of the same compound?
Its TGI is 1.78 µM.

What about the TGI (CCRF-CEM leukemia) of the same compound?
Its TGI is 3.83 µM.

And the TGI (HOP-62 NSCLC)?
The TGI was 2.86 µM.

And the TGI (NCI-H226 lung)?
The TGI was 3.94 µM.

And the TGI (HCT-116 colon)?
The TGI was 2 µM.

And the TGI (SK-OV-3 ovarian)?
Its TGI is 1.78 µM.

And the TGI (IGROV1 ovarian)?
Its TGI is 2.59 µM.

And the TGI (HOP-92 NSCLC)?
Its TGI is 4.04 µM.

What about the TGI (SNB-19 CNS) of the same compound?
Its TGI is 77.8 µM.

What about the TGI (OVCAR-3 ovarian) of the same compound?
The TGI was 1.01 µM.

And the TGI (NCI-H522 lung)?
The TGI was 1.49 µM.

What about the TGI (A549 NSCLC) of the same compound?
Its TGI is 4.92 µM.

What about the TGI (OVCAR-8 ovarian) of the same compound?
Its TGI is 2.54 µM.

And the TGI (SF-268 CNS)?
The TGI was 3.05 µM.

What about the TGI (786-0 renal) of the same compound?
Its TGI is 3.19 µM.

And the TGI (HS 578T breast)?
The TGI was 3.32 µM.

What about the TGI (SNB-75 CNS) of the same compound?
Its TGI is 4.45 µM.

And the TGI (SK-MEL-5 melanoma)?
Its TGI is 1.33 µM.

What about the TGI (UACC-257 melanoma) of the same compound?
Its TGI is 2.28 µM.

And the TGI (CAKI-1 renal)?
Its TGI is 10.8 µM.
